The source of these data is patent US7199286B2, “Plant-derived novel pathogen and SAR-induction chemical induced promoters, and fragments thereof” (Syngenta Participations AG, priority 1999, dated 2007).

Common to all, as to format: in vivo, Arabidopsis
Assay [1] concerns NI16 RNA. Description: Quantitative Northern, NI16 level in wild type and NI16-overexpressing lines after BTH. The conditions noted are these: for NI16 level (relative): 24 hours after induction. An excerpt:
(§1) A NI16 construct is made in binary vector pBAR35S (obtained from Jeff Dangi, UNC-Chapel Hill). First a full-length clone is obtained by cloning the 5′ sequence of NI16 (obtained by 5′ RACE and cloned into AT vector pCR2.1) into the EcoRI site of the original pJG4-5 clone as an EcoRI fragment. Then the entire coding region of NI16 is PCR cloned back into pCR2.1 with the primers 16F and 16 R (Table 1). The resulting plasmid is cut with XbaI and SacI for cloning into pBAR35S. The clone is transformed into Agrobacterium strain GV3101 (Koncz and Schell, 1986). WS—O and nim1-4 plants are transformed using standard procedures and the resulting T1 seed is selected by spraying with a 60 μg/ml solution of BASTA every two days for 6 days after germination. BASTA resistant plants are analyzed for levels of NI16 and PR-1 RNA after 4 weeks.
(§2) 4 WS—O plants expressing NI16 above wild type levels are recovered. All have elevated levels of PR-1 RNA as detected on Northern blots. All 4 plants are taken to the T3 generations. Quantitative Northerns are done on two of the T3 lines, one with a relatively low level of N116 RNA (1-1B) and one with a high level of N116 RNA (2-1B). Northerns are hybridized with NI16 and PR-1 probes. Measurements are taken with a Molecular Dynamics Phosphoimager, which directly measures counts per unit area. The amount of PR-1 RNA correlates directly with the amount of NI16 RNA, i.e., the highest expressers of NI16 have the highest levels of PR-1. (Table 2). […] PR-1 levels are induced at the same rate in the two NI16 lines as the WS—O control, however steady state PR-1 levels are higher, especially at 0 and 10 μm BTH. NI16 may therefore be necessary for the SAR response, and overexpression of NI16 may activate a subset of the response. PR-1 is also elevated in nahG, nim1-1 and nim1-4 plants overexpressing NI16. Out of 34 nim1-1 T1 plants containing the 35S-NI16 construct, 22 have elevated levels of PR-1. Similarly, 18/26 nim1-4 and 20/27 nahG primary transformants have elevated PR-1 levels. In each case, high NI16 expression is correlated with high PR-1 levels. This is significant because nim1 and nahG plants are normally deficient in their ability to induce PR1 in response to pathogens. Furthermore, this provides evidence that overexpression of NI16 can at least partially compensate for the absence of SA and a functional NIM protein in plants.

A further assay relates to NI16 gene. Description: NI16 gene induction in NIM1-overexpressing plants treated with BTH.
Assay [2] concerns NI16 RNA. Put plainly: Induction of NI16 mRNA by SA and BTH spray, RNA blot hybridization. The conditions noted are these: WS-O plants sprayed with 5 mM SA or 300 μm BTH. Here is the method: RNA is prepared from 4 week old Wassilewskija (WS—O) plants, that are either sprayed with water, a 5 mM solution of sodium salicylate (SA), or a 300 μm solution of benzo-(1,2,3)-thiadiazole-7-carbothioic acid S-methyl ester (BTH). […] RNA extractions and RNA blot hybridizations are performed as described previously by Ausubel et al. (1987). NI16 RNA is induced 5–10 fold within 15 minutes of SA or BTH induction and reaches a peak of approximately 50 fold induction within 2 hours of SA treatment and 25 fold induction with BTH treatment.

The next assay deals with NI16 transcript. Description: NI16 transcript accumulation in nim1-4 plants after BTH treatment. The settings on record: after 2 and 24 hours of BTH treatment.
Another assay has as its system PR-1 RNA. Put plainly: Quantitative Northern, PR-1 level in wild type and NI16-overexpressing lines after BTH. The settings on record: 24 hours after induction.
Text: as §1, §2

The mark [3] stands for this setting: NI16-overexpressing line 1-1B, 10 μm BTH.
Setting [4] is: NI16-overexpressing line 1-1B, 100 μm BTH.
The mark [5] stands for this setting: NI16-overexpressing line 2-1B, 10 μm BTH.
[6] abbreviates: NI16-overexpressing line 2-1B, 100 μm BTH.

For `CSC(=O)c1cccc2nnsc12` [BTH, benzo(1,2,3)thiadiazole-7-carbothioic acid S-methyl ester], the “NI16 level (relative)” value is 1400 in the assay with NI16 RNA [1] (setting [3]); 1480 with NI16 RNA [1] (setting [4]); 14000 with NI16 RNA [1] (setting [5]); 12000 in the assay with NI16 RNA [1] (setting [6]); 10 in the assay on NI16 RNA [1] (genotype WS, 10 μm BTH); 90 in the assay on NI16 RNA [1] (genotype WS, 100 μm BTH). Besides, the “effect on amount of NI16 RNA” value in the assay on NI16 RNA [1] (NI16 transgenic lines, BTH rates lower than normally used for protection to Peronospora parasitica) is “do not significantly increase the amount of NI16 RNA”. Also, the NI16 gene induction entry in the assay with NI16 gene is “induced”. Besides, the “time NI16 transcript remains highly induced after treatment” value in the assay on NI16 RNA [2] is “at least 48 hours”. For the same compound, the “NI16 RNA peak induction” value in the assay on NI16 RNA [2] (peak, within 2 hours of SA treatment) is around 25 fold. Besides, the NI16 transcript accumulation entry in the assay with NI16 transcript is listed as “unable to accumulate NI16 transcript”. The “PR-1 level (relative)” value came out at 30 with PR-1 RNA (setting [3]); 120 in the assay on PR-1 RNA (setting [4]); 70 in the assay on PR-1 RNA (setting [5]); 140 in the assay with PR-1 RNA (setting [6]); 30 with PR-1 RNA (genotype WS, 10 μm BTH); 90 in the assay on PR-1 RNA (genotype WS, 100 μm BTH).
